According to patent publication US12365684B2, “Short-acting benzodiazepine salts and their polymorphic forms” (priority 2006, dated 2025):
Several values for one entry are separate records, joined by “and”; a condition that tells them apart may be missing. Equal values may be shown once. Read-outs that look alike come from different tables or passages of the source.

Key:
[1] = pKa determination (potentiometric titration, Sirius GlpKa); assay type: physicochemical; conditions: MeOH:H2O mixtures, MeOH:H2O mixtures at 25° C., extrapolated to 0% co-solvent
Procedure: pka determination was performed on a Sirius GlpKa instrument with D-PAS attachment. Measurements were made by potentiometric titration in MeOH:H2O mixtures at 25° C. The titration media was ionic strength adjusted with 0.15M KCl. The values found in the MeOH:H2O mixtures were extrapolated to 0% co-solvent via a Yasuda-Shedlovsky extrapolation.

[2] = Solid-state stability study of compound of formula (I) (appearance, HPLC content); assay type: physicochemical
Procedure: Method/Technique. 2 mg samples of compound of formula (I), accurately weighed, were placed in 4-mL clear glass screw-cap vials. Samples were tested at initial and after 34 days stored at 5° C./Ambient Relative Humidity (AMRH) Closed, 30° C./60% RH Closed, 40° C./75% RH Open and 60° C./AMRH Closed.

[3] = Observed solubility of compound of formula (I) besylate in solvents; assay type: physicochemical; conditions: approximate
Source text: The compound also has an excess of Hydrogen bond acceptors and therefore will be suitably partnered by Hydrogen bond donating solvents. It is thus expected that the compound will prefer solubilisation in a range of polar organic solvents such as the alcohols, particularly those which provide a partially lipophillic, Hydrogen bond donating environment. This has been borne out by experimental evidence (details of solvents used are given in Example 8):
Values quoted are approximate, but experimentally confirmed.

[4] = test system: mice; experiment: Anaesthetic and sedative effects: loss of the righting reflex (LRR) after i.v. administration; assay type: in vivo; conditions: for NUMBER OF MICE WITH LRR: eight mice per group; for LRR DURATION, mean: maximum = 90 minutes after injection
Procedure: The anaesthetic and sedative effects of the besylate salt Form 1 of the present invention was evaluated. The besylate (benzenesulfonic acid) salt was dissolved in physiological saline for administration of the test composition to the animal. The test composition was administered to mice, placed in individual Plexiglas cages (20×10×10 cm). Mice were injected with either vehicle or test substance by the intravenous route. The latency to sleep and the duration of anaesthesia (maximum: 90 minutes after test-substance administration) were recorded. Anaesthesia is indicated by loss of the righting reflex (LRR). The righting reflex test was performed as soon as the animals appear sedated, approximately every 20-30 seconds. Once the righting reflex is absent, duration of loss of righting reflex was measured by testing for the return of the righting reflex approximately every 20-30 seconds thereafter. Eight mice were studied per group and the test was performed blind.

[5] = Thermodynamic aqueous solubility; assay type: physicochemical; conditions: water, 25° C., 24 hrs
Procedure: This was measured by suspending sufficient compound in 0.25 ml of solvent (water) to give a maximum final concentration of 10 mg/ml of the parent free form of the compound. The suspension was equilibrated at 25° C. for 24 hrs followed by a pH check and filtration through a glass fibre C 96 well plate. The filtrate is then diluted down 101x. Quantitation was by HPLC with reference to a standard dissolved in DMSO at approx 0.1 mg/ml. Different volumes of the standard, diluted and undiluted tests were injected. The solubility was calculated by integration of the peak area found at the same retention time as the peak maximum in the standard injection. If there is sufficient solid in the filter plate the XRPD is normally checked for phase changes, hydrate formation, amorphization, crystallization etc.

[6] = Polymorphism maturation experiment (solvent slurries), HPLC purity post 1 week; assay type: physicochemical; conditions: heat/cool cycle ambient to 60° C., starting hplc purity 97.7%
Procedure: The solid was slurried in various solvents (see Table 11) for one week on a heat/cool cycle from ambient to 60° C. After one week the slurries were evaporated and the solids analysed by XRPD and HPLC.
• Method: Gradient, Reverse Phase • Method Duration/min: 34 • Column: Phenomenex Gemini C18 5 μm (2.0×50 mm) (Guard cartridge Phenomenex Gemini C18 guard cartridge 2×4 mm) • Column Temperature/° C.: 40 • Injection/μl: 5 • Flow Rate ml/min: 0.8 • Detection: UV • Wavelength/nm: 255 (bandwidth of 90 nm), 240 (bandwidth of 80 nm), 254 (bandwidth of 8 nm) • Phase A: 2 mmol NH4HCO3 (adjusted to pH10 with NH3 solution) Phase B: acetonitrile Timetable: […]

[7] = Gravimetric Vapour Sorption (GVS); assay type: physicochemical; conditions: 25° C., 0-90% RH range
Procedure: All samples were run on a Hiden IGASorp moisture sorption analyser running CFRSorp software. Sample sizes were typically 10 mg. A moisture adsorption desorption isotherm was performed as outlined below (2 scans giving 1 complete cycle). All samples were loaded/unloaded at typical room humidity and temperature (40% RH, 25° C.). All samples were analysed by XRPD post GVS analysis. The standard isotherm was performed at 25° C. at 10% RH intervals over a 0-90% RH range unless otherwise stated.

SMILES: COC(=O)CC[C@@H]1N=C(c2ccccn2)c2cc(Br)ccc2-n2c(C)cnc21 [compound of formula (I), Methyl 3-[(4S)-8-bromo-1-methyl-6-(2-pyridinyl)-4H-imidazol [1,2-a][1,4]benzodiazepin-4-yl]propanoate]
- pKa ([1]; read-out: pKa of the basic centre of the imidazole ring): ~5
- pKa ([1]; read-out: pKa of the basic centre of the pyridine ring): ~2
- % Relative to Avg. Initial % area ([2]; 5 C./AMRH Closed, 34 days): 100.52%
- Appearance ([2]; 5 C./AMRH Closed, 34 days): Cream to light yellow powder
- Compound of Formula (I) Content % area ([2]; 5 C./AMRH Closed, 34 days): 95.30 % area
- Compound of Formula (I) Content % w/w ([2]; 5 C./AMRH Closed, 34 days): 102.6 % w/w
- % Relative to Avg. Initial % area ([2]; 30 C./60% RH Closed, 34 days): 99.36%
- Appearance ([2]; 30 C./60% RH Closed, 34 days): Cream to light yellow powder
- Compound of Formula (I) Content % area ([2]; 30 C./60% RH Closed, 34 days): 94.20 % area
- Compound of Formula (I) Content % w/w ([2]; 30 C./60% RH Closed, 34 days): 94.7 % w/w
- drop in content relative to the initial % area ([2]; 30° C./60% RH Closed, 34 days): approximately 0.6%
- % Relative to Avg. Initial % area ([2]; 40 C./75% RH Open, 34 days): 98.57% and 98.50%
- Compound of Formula (I) Content % area ([2]; 40 C./75% RH Open, 34 days): 93.45 % area and 93.39 % area
- Compound of Formula (I) Content % w/w ([2]; 40 C./75% RH Open, 34 days): 105.4 % w/w and 100.3 % w/w
- % Relative to Avg. Initial % area ([2]; 60 C./AMRH Closed, 34 days): 92.57%
- Compound of Formula (I) Content % area ([2]; 60 C./AMRH Closed, 34 days): 87.77 % area
- Compound of Formula (I) Content % w/w ([2]; 60 C./AMRH Closed, 34 days): 93.4 % w/w and 91.1 % w/w
- decrease of average % w/w content from the initial value ([2]; 34 days at 60° C./AMRH Closed): 10 % w/w
- Appearance ([2]; RT, initial): Cream to light yellow powder
- Compound of Formula (I) Content % area ([2]; RT, initial): 95.14 % area and 94.47 % area
- Compound of Formula (I) Content % w/w ([2]; RT, initial): 100.5 % w/w and 104.1 % w/w
- Avg. Initial % area ([2]; RT, initial, average of two samples): Avg = 94.81 % area
- time stable with respect to appearance and content ([2]; stored at 5° C./AMRH Closed): at least 34 days

SMILES: COC(=O)CC[C@@H]1N=C(c2ccccn2)c2cc(Br)ccc2-n2c(C)cnc21.O=S(=O)(O)c1ccccc1 [compound of formula (I) besylate]
- solubility ([3]; Water): 2 mg/mL
- solubility ([3]; organic solvent or mixture, 1,2-ethanediol): 60 mg/mL
- solubility ([3]; organic solvent or mixture, 1,4-dioxan): 1 mg/mL
- solubility ([3]; organic solvent or mixture, 2,2,2-trifluoroethanol): 1000 mg/mL
- solubility ([3]; organic solvent or mixture, 2-ethoxyethanol): 20 mg/mL
- solubility ([3]; organic solvent or mixture, 2-methoxyethanol): 167 mg/mL
- solubility ([3]; organic solvent or mixture, Acetone): 2 mg/mL
- solubility ([3]; organic solvent or mixture, Acetonitrile): > 20 mg/mL
- solubility ([3]; organic solvent or mixture, Chloroform): < 0.4 mg/mL
- solubility ([3]; organic solvent or mixture, Dichloromethane): < 0.3 mg/mL
- solubility ([3]; organic solvent or mixture, Dimethyl sulfoxide): 500 mg/mL
- solubility ([3]; organic solvent or mixture, Dimethylacetamide): 200 mg/mL
- solubility ([3]; organic solvent or mixture, Dimethylformamide): 300 mg/mL
- solubility ([3]; organic solvent or mixture, Ethanol): 100 mg/mL
- solubility ([3]; organic solvent or mixture, Ethyl acetate): 0.2 mg/mL
- solubility ([3]; organic solvent or mixture, Formamide): 350 mg/mL
- solubility ([3]; organic solvent or mixture, Hexafluoropropan-2-ol): > 700 mg/mL
- solubility ([3]; organic solvent or mixture, Methanol): 400 mg/mL
- solubility ([3]; organic solvent or mixture, Methylbenzoate): 2 mg/mL
- solubility ([3]; organic solvent or mixture, Propan-1-ol): 15 mg/mL
- solubility ([3]; organic solvent or mixture, Propan-2-ol): 4.8 mg/mL
- solubility ([3]; organic solvent or mixture, Tetrahydrofuran): 2.5 mg/mL

SMILES: COC(=O)CC[C@@H]1N=C(c2ccccn2)c2cc(Br)ccc2-n2c(C)cnc21.O=S(=O)(O)c1ccccc1 [besylate Form 1]
- NUMBER OF MICE WITH LRR ([4]; 20.4 mg/kg i.v.): 2
- LRR DURATION, mean ([4]; 20.4 mg/kg i.v.): 1.7 min
- LATENCY TO LRR, mean ± s.e.m. ([4]; 27.2 mg/kg i.v.): 3.0 ± 0.2 min
- NUMBER OF MICE WITH LRR ([4]; 27.2 mg/kg i.v.): 5+
- LRR DURATION, mean ([4]; 27.2 mg/kg i.v.): 4.9 min
- LATENCY TO LRR, mean ± s.e.m. ([4]; 34 mg/kg i.v.): 1.8 ± 0.2 min
- NUMBER OF MICE WITH LRR ([4]; 34 mg/kg i.v.): 6++
- LRR DURATION, mean ([4]; 34 mg/kg i.v.): 6.0 min
- LATENCY TO LRR, mean ± s.e.m. ([4]; 40.8 mg/kg i.v.): 1.6 ± 0.5 min
- NUMBER OF MICE WITH LRR ([4]; 40.8 mg/kg i.v.): 6++
- LRR DURATION, mean ([4]; 40.8 mg/kg i.v.): 7.3 min
- solubility [5]: 8.3 mg/mL
- HPLC purity post 1 week ([6]; slurried in 1,4-Dioxane): 97.2 % area
- HPLC purity post 1 week ([6]; slurried in 2.5% aq 1,4-Dioxane): 86 % area
- HPLC purity post 1 week ([6]; slurried in 2.5% aq DCM): 97.4 % area
- HPLC purity post 1 week ([6]; slurried in 2.5% aq IPA): 76.1 % area
- HPLC purity post 1 week ([6]; slurried in 2.5% aq MEK): 93.9 % area
- HPLC purity post 1 week ([6]; slurried in 2.5% aq MIBK): 97.3 % area
- HPLC purity post 1 week ([6]; slurried in 2.5% aq MeCN): 93.3 % area
- HPLC purity post 1 week ([6]; slurried in 2.5% aq THF): 93.3 % area
- HPLC purity post 1 week ([6]; slurried in 2.5% aq acetone): 96.8 % area
- HPLC purity post 1 week ([6]; slurried in DCM): 97.4 % area
- HPLC purity post 1 week ([6]; slurried in IPA): 97.1 % area
- HPLC purity post 1 week ([6]; slurried in MEK): 97.2 % area
- HPLC purity post 1 week ([6]; slurried in MIBK): 97.7 % area
- HPLC purity post 1 week ([6]; slurried in MeCN): 94.3 % area
- HPLC purity post 1 week ([6]; slurried in MtBE): 97.7 % area
- HPLC purity post 1 week ([6]; slurried in THF): 97.6 % area
- HPLC purity post 1 week ([6]; slurried in acetone): 97.5 % area
- HPLC purity post 1 week ([6]; slurried in iPrOAc): 97.5 % area
- GVS uptake [7]: 2.0%
